{"source": "ChEMBL document CHEMBL1201862", "about": "“PubChem BioAssay data set” (2004)", "key": {"Genome polyprotein": {"molecular_target": "Genome polyprotein (dengue virus type 2, UniProt P29990)", "sequence (P29990 2492-3391 limits assumed)": "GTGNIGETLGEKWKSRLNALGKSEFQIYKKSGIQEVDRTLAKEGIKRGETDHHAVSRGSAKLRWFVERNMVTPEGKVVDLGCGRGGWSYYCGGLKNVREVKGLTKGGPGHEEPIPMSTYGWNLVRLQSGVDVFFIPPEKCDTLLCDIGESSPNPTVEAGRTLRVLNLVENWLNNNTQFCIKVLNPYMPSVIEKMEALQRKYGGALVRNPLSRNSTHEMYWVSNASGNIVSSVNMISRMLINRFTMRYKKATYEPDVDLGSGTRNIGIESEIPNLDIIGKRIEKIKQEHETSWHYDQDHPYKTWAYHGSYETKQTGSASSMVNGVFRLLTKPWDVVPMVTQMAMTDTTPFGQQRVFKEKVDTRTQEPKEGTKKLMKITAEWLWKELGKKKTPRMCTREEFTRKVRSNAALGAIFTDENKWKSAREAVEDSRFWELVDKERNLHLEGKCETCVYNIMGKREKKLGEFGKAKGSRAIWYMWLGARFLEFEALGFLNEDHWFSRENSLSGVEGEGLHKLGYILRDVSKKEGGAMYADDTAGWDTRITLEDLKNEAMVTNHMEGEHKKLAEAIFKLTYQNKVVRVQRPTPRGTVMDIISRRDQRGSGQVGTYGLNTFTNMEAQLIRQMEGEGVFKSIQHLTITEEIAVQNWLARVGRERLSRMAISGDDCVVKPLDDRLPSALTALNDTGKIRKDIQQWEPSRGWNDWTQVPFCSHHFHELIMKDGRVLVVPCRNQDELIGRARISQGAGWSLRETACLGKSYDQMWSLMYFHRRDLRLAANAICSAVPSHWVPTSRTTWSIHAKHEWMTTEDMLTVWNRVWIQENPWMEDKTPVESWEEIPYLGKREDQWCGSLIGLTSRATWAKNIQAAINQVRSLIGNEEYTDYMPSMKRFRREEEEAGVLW", "test": "flavivirus cap methylation enzyme inhibition – biochemical, confirmation dose response, primary screen (AID 588689)", "type": "functional"}, "[1]": {"molecular_target": "T1, Replicative DNA helicase DnaB (Mycobacterium tuberculosis, UniProt P9WMR3)", "T1 sequence (P9WMR3 whole entry)": "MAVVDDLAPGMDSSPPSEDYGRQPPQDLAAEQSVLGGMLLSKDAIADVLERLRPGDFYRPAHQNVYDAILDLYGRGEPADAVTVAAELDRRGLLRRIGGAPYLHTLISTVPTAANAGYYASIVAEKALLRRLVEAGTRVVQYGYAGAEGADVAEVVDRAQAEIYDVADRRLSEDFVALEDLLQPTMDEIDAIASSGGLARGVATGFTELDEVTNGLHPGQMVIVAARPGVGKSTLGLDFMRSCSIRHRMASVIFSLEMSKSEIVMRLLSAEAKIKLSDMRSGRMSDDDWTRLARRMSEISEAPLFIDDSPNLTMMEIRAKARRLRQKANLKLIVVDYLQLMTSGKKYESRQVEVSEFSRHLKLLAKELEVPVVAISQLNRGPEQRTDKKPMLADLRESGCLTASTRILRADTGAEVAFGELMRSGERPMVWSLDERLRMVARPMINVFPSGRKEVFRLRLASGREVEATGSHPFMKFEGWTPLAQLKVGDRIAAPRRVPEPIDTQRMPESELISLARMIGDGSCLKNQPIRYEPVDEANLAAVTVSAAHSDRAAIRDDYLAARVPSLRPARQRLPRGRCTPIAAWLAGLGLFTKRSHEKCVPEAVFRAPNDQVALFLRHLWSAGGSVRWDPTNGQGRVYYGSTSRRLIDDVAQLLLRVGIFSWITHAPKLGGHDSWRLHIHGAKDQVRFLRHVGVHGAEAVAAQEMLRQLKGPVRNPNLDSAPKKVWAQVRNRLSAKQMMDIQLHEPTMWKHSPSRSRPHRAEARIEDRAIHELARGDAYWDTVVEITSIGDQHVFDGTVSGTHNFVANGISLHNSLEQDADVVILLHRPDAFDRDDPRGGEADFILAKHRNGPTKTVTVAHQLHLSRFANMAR", "test": "DnaB intein splicing inhibitors, dose response, biochemical, cell-free fluorescence (AID 449749)", "type": "functional"}, "Protein RecA": {"molecular_target": "T2, Protein RecA (Mycobacterium tuberculosis, UniProt P9WHJ3)", "T2 sequence (P9WHJ3 whole entry)": "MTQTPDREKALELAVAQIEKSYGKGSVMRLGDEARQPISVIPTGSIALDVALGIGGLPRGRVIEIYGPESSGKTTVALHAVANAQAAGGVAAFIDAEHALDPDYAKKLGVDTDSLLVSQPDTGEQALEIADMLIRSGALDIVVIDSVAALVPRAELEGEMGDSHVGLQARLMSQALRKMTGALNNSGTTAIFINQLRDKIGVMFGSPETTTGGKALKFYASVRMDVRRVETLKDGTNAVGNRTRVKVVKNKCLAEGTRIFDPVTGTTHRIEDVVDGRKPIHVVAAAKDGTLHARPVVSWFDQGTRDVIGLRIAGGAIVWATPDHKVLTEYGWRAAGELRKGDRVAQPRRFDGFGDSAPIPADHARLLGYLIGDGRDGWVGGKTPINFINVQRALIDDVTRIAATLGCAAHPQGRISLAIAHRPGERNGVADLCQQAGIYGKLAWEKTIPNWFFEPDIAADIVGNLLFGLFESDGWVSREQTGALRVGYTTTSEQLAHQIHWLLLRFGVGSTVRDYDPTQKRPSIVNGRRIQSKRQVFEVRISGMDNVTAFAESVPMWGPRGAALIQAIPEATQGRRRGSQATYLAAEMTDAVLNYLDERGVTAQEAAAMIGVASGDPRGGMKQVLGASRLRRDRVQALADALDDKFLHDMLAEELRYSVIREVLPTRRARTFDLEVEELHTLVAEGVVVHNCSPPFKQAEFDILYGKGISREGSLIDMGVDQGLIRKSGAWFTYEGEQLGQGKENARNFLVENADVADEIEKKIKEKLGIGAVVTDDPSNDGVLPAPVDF", "test": "Fluorescence Cell-Free Homogeneous Dose Retest to Identify Inhibitors of RecA-Intein Splicing Activity. [Related pubchem assays (depositor defined):AID2097, AID2223, AID489010, AID492950]", "type": "functional"}, "[2]": {"test": "fluconazole-exposed Candida albicans growth modulators – fluorescence, retest, confirmation (AID 2467)", "type": "functional, cell-based"}, "[3]": {"test": "NIH-3T3 fibroblast cytotoxicity, dose response, cytotoxicity control, cell-based, fluorescence, Alamar Blue, secondary assay (AID 2327);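 further: NIH-3T3 mouse fibroblasts cultured with fluconazole at 8 µg/mL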", "type": "functional"}, "[4]": {"molecular_target": "T3, Calpain-2 catalytic subunit (Sus scrofa, UniProt P43367)", "T3 sequence (P43367 whole entry)": "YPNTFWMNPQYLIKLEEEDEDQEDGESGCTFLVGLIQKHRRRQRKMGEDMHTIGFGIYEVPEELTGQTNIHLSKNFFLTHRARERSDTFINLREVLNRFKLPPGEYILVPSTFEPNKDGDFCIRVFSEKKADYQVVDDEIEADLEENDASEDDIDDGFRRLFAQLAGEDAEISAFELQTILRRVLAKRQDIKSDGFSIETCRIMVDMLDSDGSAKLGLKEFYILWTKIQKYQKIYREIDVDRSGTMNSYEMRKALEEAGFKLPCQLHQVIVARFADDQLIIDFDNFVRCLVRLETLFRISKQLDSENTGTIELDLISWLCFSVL", "test": "m-calpain protease blockers, concentration series – biochemical, fluorogenic peptide substrate, dose response (AID 1420)", "type": "functional"}, "[5]": {"test": "Trypanosoma cruzi growth suppression in host cells – NIH3T3 host cells, beta-gal luminescence, confirmation (AID 2044);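 further: intracellular parasites grown in NIH/3T3 mouse fibroblasts as host cells; luminescent beta-galactosidase reporter signal from transgenic T. cruzi replicating inside host cells; inhibitors lower the luminescence signal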", "type": "functional, cell-based"}, "[6]": {"test": "NIH3T3 cell viability loss – ATP luminescence, mouse fibroblasts, counter-screen, dose response (AID 2010);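 further: cells exposed to compound for about 90 hours before reading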", "type": "functional, cell-based"}, "[7]": {"test": "Luminescence Cell-Based Dose Confirmation HTS to Identify Inhibitors of Platelet Dense Granule Release. [Related pubchem assays: 1663 (Primary HTS), 1678 (Summary of Project)]", "type": "functional"}, "[8]": {"molecular_target": "Luciferin 4-monooxygenase (Photinus pyralis, UniProt P08659)", "sequence (P08659 whole entry)": "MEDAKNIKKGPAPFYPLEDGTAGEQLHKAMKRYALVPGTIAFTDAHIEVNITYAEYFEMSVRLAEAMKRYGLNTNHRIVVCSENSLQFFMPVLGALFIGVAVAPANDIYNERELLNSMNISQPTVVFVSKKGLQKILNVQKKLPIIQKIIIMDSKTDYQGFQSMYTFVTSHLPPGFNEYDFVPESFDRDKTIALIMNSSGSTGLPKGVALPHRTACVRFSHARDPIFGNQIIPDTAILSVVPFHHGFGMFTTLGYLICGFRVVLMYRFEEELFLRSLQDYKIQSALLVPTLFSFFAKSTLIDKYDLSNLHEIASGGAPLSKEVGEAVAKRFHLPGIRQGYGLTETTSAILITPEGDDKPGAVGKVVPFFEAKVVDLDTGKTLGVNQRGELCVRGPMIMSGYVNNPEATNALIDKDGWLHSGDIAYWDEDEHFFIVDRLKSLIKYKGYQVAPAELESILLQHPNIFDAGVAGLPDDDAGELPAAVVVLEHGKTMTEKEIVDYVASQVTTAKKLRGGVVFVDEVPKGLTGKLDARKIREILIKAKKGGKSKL", "test": "inhibition of purified Photinus pyralis luciferase – biochemical, luminescence, dose response (AID 1891)"}, "[9]": {"test_system": "Streptococcus sp. 'group A'", "test": "Streptococcus pyogenes SK(-)GAS viability under kanamycin – luminescence, BacTiterGlo, confirmation, counter-screen for streptokinase expression inhibitor project, dose response (AID 1900)", "type": "functional, organism-based"}, "Streptococcus": {"test_system": "Streptococcus", "test": "GAS UMAA2166 growth inhibition – luminescence, BacTiterGlo, counter-screen for streptokinase expression inhibitor project, dose response (AID 1915);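 further: potency for reduction of bacterial viability or growth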", "type": "functional, organism-based"}, "Streptokinase A": {"molecular_target": "T4, Streptokinase A (Streptococcus pyogenes serotype M1, UniProt P10520)", "T4 sequence (P10520 whole entry)": "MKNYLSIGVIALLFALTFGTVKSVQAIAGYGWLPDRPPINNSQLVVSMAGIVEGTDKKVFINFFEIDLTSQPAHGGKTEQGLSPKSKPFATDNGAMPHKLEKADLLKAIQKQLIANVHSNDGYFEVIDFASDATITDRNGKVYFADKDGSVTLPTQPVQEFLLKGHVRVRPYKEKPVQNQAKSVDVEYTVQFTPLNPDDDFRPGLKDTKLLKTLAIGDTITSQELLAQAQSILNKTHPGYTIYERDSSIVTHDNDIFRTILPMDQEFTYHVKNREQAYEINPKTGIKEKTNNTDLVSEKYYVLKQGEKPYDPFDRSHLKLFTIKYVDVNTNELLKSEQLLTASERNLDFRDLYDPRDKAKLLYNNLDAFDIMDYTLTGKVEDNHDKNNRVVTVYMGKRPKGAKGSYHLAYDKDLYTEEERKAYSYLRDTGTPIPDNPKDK", "test": "viability-normalized secreted streptokinase activity reduction – plasminogen activation absorbance, OD405, dose response (AID 1914);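 further: secreted streptokinase activity via plasminogen activation per viability signal from cell pellet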", "type": "functional, Streptococcus pyogenes M1 GAS"}, "cells": {"test": "cells", "type": "functional"}}, "note": "The source made the active and inactive calls. For most assays here, no stated cut-off is given here; in the data, actives have a measured EC50 and inactives only a lower limit."}
{"smiles": "O=C(O)/C=C/C(=O)Nc1ccc(C2(c3ccc(NC(=O)/C=C/C(=O)O)cc3)c3ccccc3-c3ccccc32)cc1", "values": [{"measurement": "IC50", "setting": "Genome polyprotein", "result": "18.1 µM (active)"}, {"measurement": "AC50", "setting": "[1]", "result": "13.3 µM (active)"}, {"measurement": "EC50", "setting": "Protein RecA", "result": "2.88 µM (active)"}]}
{"smiles": "CC(=O)c1cnc2cc(-c3cccc(Br)c3)nn2c1C", "values": [{"measurement": "EC50", "setting": "[2]", "result": "> 38 µM (not active)"}, {"measurement": "EC50", "setting": "[3]", "result": "> 150 µM (inconclusive)"}]}
{"smiles": "O=C(NCc1ccccc1Cl)C1CCCN(c2nc3ccsc3c(=O)s2)C1", "note": "(stereo not given)", "values": [{"measurement": "IC50", "setting": "[4]", "result": "15.9 µM (not active)"}]}
{"smiles": "CCCCNC(=S)N/N=C/c1ccccc1F", "values": [{"measurement": "IC50", "setting": "[4]", "result": "5.17 µM (active)"}]}
{"smiles": "Cc1ccc(-c2nc3c(c(=O)[nH]c(=O)n3CC(C)C)n2CC(C)C)cc1[N+](=O)[O-]", "values": [{"measurement": "EC50", "setting": "[5]", "result": "1.41 µM (active)"}, {"measurement": "IC50", "setting": "[4]", "result": "16.1 µM (not active)"}, {"measurement": "EC50", "setting": "[6]", "result": "> 30 µM (not active)"}]}
{"smiles": "CCN(CC(O)Cn1c2ccccc2c2ccccc21)S(=O)(=O)c1ccc(F)cc1", "note": "(stereo not given)", "values": [{"measurement": "IC50", "setting": "[4]", "result": "6.55 µM (not active)"}]}
{"smiles": "Cn1c(NN)nc2sc3c(c2c1=O)CCC3", "values": [{"measurement": "EC50", "setting": "[3]", "result": "> 150 µM (inactive)"}]}
{"smiles": "Cc1ccc(SCC(=O)OC(C)C(=O)NCc2ccccc2)cc1", "note": "(stereo not given)", "values": [{"measurement": "EC50", "setting": "[7]", "result": "> 112 µM (not active)"}, {"measurement": "EC50", "setting": "[8]", "result": "> 112 µM (not active)"}]}
{"smiles": "CC(C)(C)OC(=O)Nc1ncnc2c1ncn2C1OC(CO)C2OC(C)(C)OC21", "note": "(stereo not given)", "values": [{"measurement": "EC50", "setting": "[7]", "result": "> 112 µM (not active)"}, {"measurement": "EC50", "setting": "[8]", "result": "> 112 µM (not active)"}]}
{"smiles": "CCN(C(=O)CSc1nnc(C)n1-c1ccccc1)C1CCS(=O)(=O)C1", "note": "(stereo not given)", "values": [{"measurement": "EC50", "setting": "[7]", "result": "> 112 µM (not active)"}, {"measurement": "EC50", "setting": "[8]", "result": "> 112 µM (not active)"}]}
{"smiles": "COC(=O)c1sc(N2C(=O)C(O)=C(C(=O)c3ccc(C)o3)C2c2ccc([N+](=O)[O-])cc2)nc1C", "note": "(stereo not given)", "values": [{"measurement": "IC50", "setting": "Genome polyprotein", "result": "38.5 µM (active)"}, {"measurement": "EC50", "setting": "[9]", "result": "4.55 µM (active)"}, {"measurement": "EC50", "setting": "Streptococcus", "result": "6.86 µM (active)"}, {"measurement": "EC50", "setting": "Streptokinase A", "result": "> 150 µM (not active)"}]}
{"smiles": "Cc1cc(C)cc(OC(=O)CCN2C(=O)c3ccccc3C2=O)c1", "values": [{"measurement": "IC50", "setting": "cells", "result": "> 50 µM (active)"}]}
{"smiles": "O=C(NC1CCCCC1)C12CC3CC(CC(Cl)(C3)C1)C2", "values": [{"measurement": "EC50", "setting": "[7]", "result": "> 112 µM (not active)"}, {"measurement": "EC50", "setting": "[8]", "result": "> 112 µM (not active)"}]}
